One molecule from patent US20120258944A1, “ANTIOXIDANTS FOR USE IN THERAPY” (priority 2009, published 2012) can be followed below.

The test system of one data set is PLB985 cells. Nature of the data set: Resazurin based in vitro toxicology assay (TOX8). It is filed as cell-based, human. The following applies: PLB985, 3 hours, up to 120 μM. On the procedure: The viability of cells treated with the compounds was also analyzed using a Resazurin based in vitro Toxicology Assay Kit (SigmaAldrich TOX8). Resazurin systems measure the metabolic activity of living cell. Resazurin in its oxidized form (blue) is reduced (red) by living cells and the amount of dye conversion is measured fluorometrically or spectrophotometrically indicating the degree of cytotoxicity.
1) 75 micro-l of PLB985 cells (1 million cells/ml) is mixed with 25 micro-l of Compounds 1, 2, 3 and D (480, 120, 15 and 0.48 micro-M) in a 96 well plate in duplicates. 2) 10 micro-L of Resazurin solution is added to each well and the plate is incubated at 37° C. for 3 hours. 3) Spectrophotometrical analysis is performed in plate reader at 600 and 690 nm.
FIG. 18: Cell viability of compounds in human PLB-985 cell line. Concentrations of compounds 120; 60; 30; 3.75; 0.12 and […] final concentrations. Measurement that indicates cell cytotoxicity (In vitro toxicology assay, TOX-8). The bars show increased level of cytotoxicity (analysis of absorbance of 600 nm substracted with absorbance 690 nm).
On the technique in general: Resazurin is reduced to fluorescent resorufin, in cell work by metabolically active cells.

The test system of the next data set is human neutrophils. In words: Luminol enhanced chemiluminescence, total ROS production in neutrophils. The data set is classed as cell-based. An excerpt:
(§1) We investigated the capacity of the material to quench ROS produced by freshly isolated human neutrophils or THP-1 cells (human acute monocytic leukemia cell line) stimulated with PMA (Phorbol Myristate Acetate). The antioxidant capacity of selenide 1 was again compared to those of Trolox, a water soluble derivative of vitamin E, which is commonly used in biological and biochemical applications to reduce oxidative stress or damage.
Neutrophils were isolated from heparinized blood of apparently healthy blood donors (Academic Hospital, Uppsala, Sweden) following a routine dextran sedimentation method essentially as described by Halansson and Venge (Scandinavian Journal of Immunology 1980, 11, 271-282). To each of three test tubes containing 5 ml heparinized blood, dextran (T500, Pharmacia, Uppsala, Sweden) was added (final concentration 1%) and the sedimentation was allowed to proceed for 30 min at room temperature. […] Finally, the pellet was resuspended in Gey's buffer and the average content of neutrophils (approximately 90%) was calculated using Türks staining and hemocytometer method. […]
The generation of oxygen free radicals over time from neutrophils was monitored for 40 minutes in 24 well white optiplates (Greiner) using a Wallac Victor […] in the luminescence mode. […]

Another data set relates to THP-1 cells. In words: Chemiluminescence (Diogenes), ROS production in PMA stimulated THP-1 cells. The data set is classed as cell-based, human.
Description: as §1
The generation of oxygen free radicals over time from macrophages (THP-1) was monitored for 180 minutes in 96-well white optiplates (Greiner) using a using a TECAN reader and Diogenes chemiluminescence kit (National Diagnostics). Approximately 200 000 THP-1 cells diluted in HBSS containing different concentrations of the antioxidants 1 and Trolox were added per well to a 96 well plate together with the Diogenes reagent 20 v/% (following the manufacturers recommendations) and 40 micro-M Phorbol Myristate Acetate (PMA). Luminescence intensity was read every 6 min. The measurements were commonly performed on quadruplicate samples

In data set [1] the test system is human umbilical vein endothelial cells (HUVEC). In words: XTT in vitro toxicology test in human umbilical vein endothelial cells. It is filed as cell-based. The settings on record: human. On the procedure:
As a negative control, cells incubated with medium containing 0.5% DMSO (corresponding to the highest DMSO concentration above) was used. As a positive control, cells were incubated in the presence of 20% EtOH.
After the incubation with the compounds, the wells were washed with PBS to remove substances which could interfere with the assay. 40 μl of fresh medium 200 without phenol red was added together with 10 μl XTT substance (according to the manufacturer's instructions). The plates were incubated for 8 hrs and the colour development was monitored by measuring the absorbance at 450 nm.
After incubation, the number of viable cells was assessed by observing the amount of metabolized XTT (2,3-bis[2-methoxy-4-nitro-5-sulphophenyl]-2H-tetrazolium-5-carboxyanilide inner salt).
(Tetrazolium assays rely on reduction of a dye to a coloured formazan, in cell work by metabolically active cells.)

A further data set concerns kidney slice. Nature of the data set: Organ model TBARS experiment (TBA-MDA assay) in kidney slices.

For `CC1Cc2cc(O)ccc2[Se]1` (centres unmarked) [Compound 1], in the data set with PLB985 cells, the cytotoxicity entry is listed as “no signs of cytotoxicity”. Moreover, the “effect on ROS production in neutrophils” value in the data set with human neutrophils (20, 40, 60 micro-M, FIG. 22) is recorded as “clear, dose dependent, quenching/inhibiting effect”. Moreover, the “quenching of ROS from neutrophils compared with Trolox” value in the data set on human neutrophils (20 micro-M each) is “considerably more effective than Trolox”. In addition, the “effect on ROS production in THP-1” value with THP-1 cells (1, 10 and 20 micro-M, FIG. 24) is “clear, dose dependent, quenching/inhibiting effect”. In addition, the “quenching of ROS from THP-1 compared with Trolox” value in the data set on THP-1 cells (20 micro-M each) was “considerably more effective than Trolox”. For the same molecule, in data set [1], the “relative toxicity among the compounds” value was “far less toxic than compounds 2 and 3”. Further, the toxic concentration in data set [1] (24 h) stood at 500 µM; in data set [1] (48 h), 500 µM; in data set [1] (72 h), 200 µM. For the same molecule, the “potency as inhibitor of TBARS production compared with references” value in the data set with kidney slice is “more potent inhibitors of TBARS production than Trolox and N-acetylcysteine”. The “concentration able to inhibit 50% of the TBARS formation in the control incubation” value with kidney slice (re-oxygenation after Argon) is “sub-micromolar”.
